According to BindingDB's records for doi:10.1021/acs.jmedchem.6b00541 (Vertex Pharmaceuticals, 2016):

Experiments:
[1] = Allosteric inhibition of HCV genotype 1a NS5A infected in human W11.8 cells assessed as reduction in viral RNA replication after 4 days by ELISA
[2] = Allosteric inhibition of HCV genotype 1b NS5A infected in human l389lucubi- neo/NS3-375.1-containing Huh7ET cells assessed as RNA replication/translation after 4 days in presence of 40% human serum by luciferase reporter gene assay
Nonstructural protein 5A = molecular target: T1, Nonstructural protein 5A (UniProt Q5L478); assay: Allosteric inhibition of HCV genotype 1b NS5A infected in human l389lucubi- neo/NS3-375.1-containing Huh7ET cells assessed as RNA replication/translation after 4 days by luciferase reporter gene assay
T1 sequence (Q5L478 whole entry): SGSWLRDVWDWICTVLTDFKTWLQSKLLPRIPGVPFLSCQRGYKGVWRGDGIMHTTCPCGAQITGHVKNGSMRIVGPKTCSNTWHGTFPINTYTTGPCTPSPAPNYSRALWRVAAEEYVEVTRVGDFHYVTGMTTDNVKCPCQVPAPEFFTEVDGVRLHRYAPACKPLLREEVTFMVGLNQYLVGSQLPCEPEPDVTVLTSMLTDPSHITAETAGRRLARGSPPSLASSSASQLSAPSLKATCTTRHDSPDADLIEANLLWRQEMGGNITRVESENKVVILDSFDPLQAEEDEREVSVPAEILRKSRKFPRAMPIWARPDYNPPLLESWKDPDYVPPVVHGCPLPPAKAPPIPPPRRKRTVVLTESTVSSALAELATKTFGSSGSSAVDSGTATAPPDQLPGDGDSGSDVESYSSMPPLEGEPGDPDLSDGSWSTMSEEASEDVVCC

[3] = Allosteric inhibition of HCV genotype 1b NS5A infected in human l389lucubi- neo/NS3-375.1-containing Huh7ET cells assessed as RNA replication/translation after 4 days by luciferase reporter gene assay

## CC(C)(C)C#Cc1cc(N(CC(=O)N2CCOCC2)C(=O)[C@H]2CC[C@H](C)CC2)c(C(=O)O)s1
[1]
  EC50: 37 nM
[2]
  EC50: 340 nM
Nonstructural protein 5A
  EC50: 23 nM

## CC(C)(C)C#Cc1cc(N(CC(=O)N2CCCC2)C(=O)[C@H]2CC[C@H](C)CC2)c(C(=O)O)s1
[1]
  EC50: 32 nM
[3]
  EC50: 21 nM

## C[C@@H](C(=O)N(C)C)N(c1cc(C#CC(C)(C)C)sc1C(=O)O)C(=O)[C@H]1CC[C@H](C)CC1
[1]
  EC50: 7 nM
[3]
  EC50: 5 nM

## CC[C@@H](C(=O)N(C)C)N(c1cc(C#CC(C)(C)C)sc1C(=O)O)C(=O)[C@H]1CC[C@H](C)CC1
[1]
  EC50: 24 nM
[3]
  EC50: 16 nM

## COC1CCN(C(=O)CN(c2cc(C#CC(C)(C)C)sc2C(=O)O)C(=O)[C@H]2CC[C@H](C)CC2)CC1
[3]
  EC50: 17 nM

## CC(C)(C)C#Cc1cc(N(CC(=O)N2CCC(O)CC2)C(=O)[C@H]2CC[C@H](C)CC2)c(C(=O)O)s1
[3]
  EC50: 64 nM

## CCN(CC)C(=O)CN(c1cc(C#CC(C)(C)C)sc1C(=O)O)C(=O)[C@H]1CC[C@H](C)CC1
[1]
  EC50: 51 nM
[3]
  EC50: 23 nM

## CN(C)C(=O)CN(c1cc(C#CC(C)(C)C)sc1C(=O)O)C(=O)[C@H]1CC[C@H](C)CC1
[1]
  EC50: 35 nM
[3]
  EC50: 12 nM

## COC[C@@H](C(=O)N(C)C)N(c1cc(C#CC(C)(C)C)sc1C(=O)O)C(=O)[C@H]1CC[C@H](C)CC1
[1]
  EC50: 11 nM
[3]
  EC50: 7 nM

## CCC[C@@H](C(=O)N(C)C)N(c1cc(C#CC(C)(C)C)sc1C(=O)O)C(=O)[C@H]1CC[C@H](C)CC1
[3]
  EC50: 14 nM

## C[C@H](C(=O)N(C)C)N(c1cc(C#CC(C)(C)C)sc1C(=O)O)C(=O)[C@H]1CC[C@H](C)CC1
[3]
  EC50: 109 nM

## CC(C)(C)C#Cc1cc(N(CC(=O)N2CCCCC2)C(=O)[C@H]2CC[C@H](C)CC2)c(C(=O)O)s1
[3]
  EC50: 67 nM

## CN(C)C(=O)[C@H](CO)N(c1cc(C#CC(C)(C)C)sc1C(=O)O)C(=O)[C@H]1CC[C@H](C)CC1
[3]
  EC50: 60 nM

## CNC(=O)CN(c1cc(C#CC(C)(C)C)sc1C(=O)O)C(=O)[C@H]1CC[C@H](C)CC1
[3]
  EC50: 190 nM

## CN1CCN(C(=O)CN(c2cc(C#CC(C)(C)C)sc2C(=O)O)C(=O)[C@H]2CC[C@H](C)CC2)CC1
[3]
  EC50: 6 nM

## CC(C)(C)C#Cc1cc(N(CC(=O)N2CC(O)C2)C(=O)[C@H]2CC[C@H](C)CC2)c(C(=O)O)s1
[3]
  EC50: 66 nM

## CC(C)NC(=O)CN(c1cc(C#CC(C)(C)C)sc1C(=O)O)C(=O)[C@H]1CC[C@H](C)CC1
[3]
  EC50: 160 nM

## CC(C)[C@@H](C(=O)N(C)C)N(c1cc(C#CC(C)(C)C)sc1C(=O)O)C(=O)[C@H]1CC[C@H](C)CC1
[3]
  EC50: 51 nM

## CN(C)CCN(C)C(=O)CN(c1cc(C#CC(C)(C)C)sc1C(=O)O)C(=O)[C@H]1CC[C@H](C)CC1
[3]
  EC50: 9 nM

## CC(C)(C)C#Cc1cc(N(C(=O)[C@H]2CC[C@H](C)CC2)[C@H]2CC[C@H](O)CC2)c(C(=O)O)s1 [Lomibuvir]
[1]
  EC50: 53 nM
[3]
  EC50: 7 nM
